# Assay results published in US20050136444A1 (priority 2003, published 2005).
# Where a name gives a salt, the structure may show the parent alone.
# Tests used:
# NPFF1 = NPFF1 (Homo sapiens, UniProt Q9GZQ6); assay: Receptor Selection and Amplification Technology (R-SAT) functional assay, NPFF1; assay type: cell-based; parameters: expressed in transfected cells; host or cells: NIH3T3; details: R-SAT, Table 1; for Emax: Efficacy is relative to endogenous ligand, read-out: NPFF1 % Efficacy; for EC50: NA = No activity detectable at the highest dose tested (20 μM), read-out: NPFF1 pEC50 (converted)
# Method: (§1) Briefly, NIH3T3 cells were grown in 96 well tissue culture plates to 70-80% confluence. Cells were transfected for 16-20 h h with plasmid DNAs using Polyfect (Qiagen Inc.) as per manufacturer's protocols. R-SAT's were generally performed with 40 ng/well of receptor and 20 ng/well of β-galactosidase plasmid DNA. All receptor and G-protein constructs used were in the pSI-derived mammalian expression vector (Promega Inc) as described previously. […] For large-scale transfections, cells were transfected for 16-20 h, then trypsinized and frozen in DMSO. Frozen cells were later thawed, plated at ˜20,000 cells per well of a 96 half-area well plate that contained drug. With both methods, cells were then grown in a humidified atmosphere with 5% ambient CO2 for five days. Media was then removed from the plates and marker gene activity was measured by the addition of the β-galactosidase substrate o-nitrophenyl β-D-galactopyranoside (ONPG, in PBS with 0.5% NP-40). The resulting colorimetric reaction was measured in a spectrophotometric plate reader (Titertek Inc.) at 420 nm. All data were analyzed using the computer program XLFit (IDBSm).
# (§2) R-SAT assay was conducted as set forth in […]
# NPFF2 = molecular target: T1, NPFF2 (Homo sapiens, UniProt Q9Y5X5); assay: Receptor Selection and Amplification Technology (R-SAT) functional assay, NPFF2; assay type: cell-based; details: R-SAT, Table 1; for Emax: Efficacy is relative to endogenous ligand, read-out: NPFF2 % Efficacy; for EC50: NA = No activity detectable at the highest dose tested (20 μM), read-out: NPFF2 pEC50 (converted)
# T1 construct: expressed in transfected cells; host or cells: NIH3T3
# Method: as §1, §2
# T1 sequence (Q9Y5X5 103-522): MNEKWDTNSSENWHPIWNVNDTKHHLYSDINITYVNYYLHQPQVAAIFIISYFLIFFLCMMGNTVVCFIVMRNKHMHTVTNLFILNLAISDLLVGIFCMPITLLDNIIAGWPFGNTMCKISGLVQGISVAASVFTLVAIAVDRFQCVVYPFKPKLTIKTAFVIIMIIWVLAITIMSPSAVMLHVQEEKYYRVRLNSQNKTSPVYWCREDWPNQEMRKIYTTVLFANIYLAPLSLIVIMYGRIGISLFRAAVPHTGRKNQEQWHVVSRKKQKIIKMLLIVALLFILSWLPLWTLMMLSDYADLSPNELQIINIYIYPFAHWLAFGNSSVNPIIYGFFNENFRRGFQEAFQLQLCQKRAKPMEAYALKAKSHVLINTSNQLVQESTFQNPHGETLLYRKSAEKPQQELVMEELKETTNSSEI
# Sequence of NPFF1 (Q9GZQ6 whole entry, species assumed): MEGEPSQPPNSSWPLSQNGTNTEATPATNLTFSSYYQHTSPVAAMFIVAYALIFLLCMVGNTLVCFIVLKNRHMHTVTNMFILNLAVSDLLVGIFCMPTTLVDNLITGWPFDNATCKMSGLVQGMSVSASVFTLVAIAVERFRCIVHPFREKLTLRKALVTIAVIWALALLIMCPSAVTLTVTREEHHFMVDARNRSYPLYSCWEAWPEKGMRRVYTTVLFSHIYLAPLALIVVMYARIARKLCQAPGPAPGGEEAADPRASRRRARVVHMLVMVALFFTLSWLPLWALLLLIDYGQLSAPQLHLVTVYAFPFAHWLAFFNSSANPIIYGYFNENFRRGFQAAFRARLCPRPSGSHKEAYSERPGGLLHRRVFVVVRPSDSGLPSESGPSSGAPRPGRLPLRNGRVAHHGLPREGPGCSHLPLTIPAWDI
Emax (NPFF1),EC50 (NPFF1),Emax (NPFF2),EC50 (NPFF2),SMILES
8%,,40%,3160 nM,"N=C(N)NN=Cc1cc(C(F)(F)F)ccc1Cl [Compound 2069, 1-[2-Chloro-5-(trifluoromethyl)benzylideneamino]guanidine Hydrochloride]"
11%,,50%,2000 nM,"N=C(N)NN=Cc1ccc(F)c2ccccc12 [Compound 2072, 1-[(4-Fluoro-1-naphthalen-1-yl)methylideneamino]guanidine Hydrochloride]"
19%,10000 nM,77%,2510 nM,"COc1ccc(C(F)(F)F)cc1C=NNC(=N)N [Compound 2074, 1-[2-Methoxy-5-(trifluoromethyl)benzylideneamino]guanidine Hydrochloride]"
21%,398 nM,61%,3160 nM,"Cc1ccc(C=NNC(=N)N)c(C)c1 [Compound 2077, 1-[2,4-Dimethylbenzylideneamino]guanidine Hydrochloride]"
3%,,59%,7940 nM,"COc1ccc(OC)c(C=NNC(=N)N)c1 [Compound 3005, 1-(2,5-Dimethoxybenzylideneamino)guanidine Hydrochloride]"
13%,,54%,5010 nM,"Cc1cccc(C=NNC(=N)N)c1 [Compound 3018, 1-(3-Methylbenzylideneamino)guanidine Hydrochloride]"
12%,,86%,2510 nM,"Cc1ccc(C=NNC(=N)N)cc1C [Compound 3019, 1-(3,4-Dimethylbenzylideneamino)guanidine Hydrochloride]"
13%,,55%,1260 nM,"CCCCCc1ccc(C=NNC(=N)N)cc1 [Compound 3022, 1-(4-n-pentylbenzylideneamino)guanidine Hydrochloride]"
28%,3160 nM,101%,2000 nM,"CCc1ccc(C=NNC(=N)N)cc1 [Compound 3025, 1-(4-Ethylbenzylideneamino)guanidine Hydrochloride]"
84%,1260 nM,82%,631 nM,"CCN(CCO)c1ccc(C=NNC(=N)N)c(C)c1 [Compound 3036, 1-{4-[Ethyl-(2-hydroxyethyl)amino]-2-methylbenzylideneamino}guanidine Hydrochloride]"
39%,794 nM,59%,3160 nM,"CCN(CC)c1ccc(C=NNC(=N)N)c(O)c1 [Compound 3037, 1-(4-Diethylamino-2-hydroxybenzylideneamino)guanidine Hydrochloride]"
72%,1000 nM,65%,1260 nM,"CCN(CC)c1ccc(C=NNC(=N)N)cc1 [Compound 3038, 1-(4-Diethylaminobenzylideneamino)guanidine Hydrochloride]"
48%,1580 nM,70%,2000 nM,"CN(CCC#N)c1ccc(C=NNC(=N)N)cc1 [Compound 3040, 1-{4-[Methyl-(2-cyanoethyl)amino]benzylideneamino}guanidine Hydrochloride]"
30%,10000 nM,53%,10000 nM,"CN(CCO)c1ccc(C=NNC(=N)N)cc1 [Compound 3041, 1-{4-[Methyl-(2-hydroxyethyl)amino]benzylideneamino}guanidine Hydrochloride]"
60%,1000 nM,92%,1000 nM,"CCN(CC)c1ccc(C=NNC(=N)N)c(OC)c1 [Compound 3043, 1-(2-Methoxy-4-N,N-diethylaminobenzylideneamino)guanidine Hydrochloride]"

# Second part, the compound before the results:
SMILES,Emax (NPFF1),EC50 (NPFF1),Emax (NPFF2),EC50 (NPFF2)
"N=C(N)NN=Cc1ccc(C(F)(F)F)c(F)c1 [Compound 2063, 1-[3-Fluoro-4-(trifluoromethyl)benzylideneamino]guanidine Hydrochloride]",36%,3160 nM,78%,2510 nM
"N=C(N)NN=Cc1cccc(C(F)(F)F)c1F [Compound 2065, 1-[2-Fluoro-3-(trifluoromethyl)benzylideneamino]guanidine Hydrochloride]",9%,,45%,3160 nM
"N=C(N)NN=Cc1ccc(F)c(C(F)(F)F)c1 [Compound 2068, 1-[4-Fluoro-3-(trifluoromethyl)benzylideneamino]guanidine Hydrochloride]",13%,,61%,1000 nM
"COc1ccc(C=NNC(=N)N)cc1C(F)(F)F [Compound 2073, 1-[4-Methoxy-3-(trifluoromethyl)benzylideneamino]guanidine Hydrochloride]",13%,,51%,1580 nM
"N=C(N)NN=Cc1ccc2ccccc2c1 [Compound 2075, 1-[Naphthalen-2-yl-methylideneamino]guanidine Hydrochloride]",24%,1260 nM,65%,2510 nM
"COc1cccc(C=NNC(=N)N)c1OCc1ccccc1 [Compound 3006, 1-(2-Benzyloxy-3-methoxybenzylideneamino)guanidine Hydrochloride]",14%,,47%,794 nM
"COc1ccc2ccccc2c1C=NNC(=N)N [Compound 3007, 1-[1-(2-Methoxy-naphthalen-1-yl)methylideneamino]guanidine Hydrochloride]",24%,7940 nM,84%,6310 nM
"CC(=NNC(=N)N)c1ccc(Cl)c(Cl)c1 [Compound 3012, 1-[1-(3,4-Dichlorophenyl)ethylideneamino]guanidine Hydrochloride]",0%,,63%,251 nM
"N=C(N)NN=Cc1cc2c(cc1Br)OCO2 [Compound 3015, 1-[(6-Bromobenzo[1,3]dioxol-5-yl)methylideneamino]guanidine Hydrochloride]",26%,1000 nM,70%,1260 nM
"CC(=NNC(=N)N)c1ccc(Br)cc1 [Compound 3016, 1-[1-(4-Bromophenyl)ethylideneamino]guanidine Hydrochloride]",16%,,74%,1580 nM
"CC(=NNC(=N)N)c1cccc(C)c1 [Compound 3017, 1-[1-(3-Methylphenyl)ethylideneamino]guanidine Hydrochloride]",17%,,80%,6310 nM
"CCc1ccc(C(C)=NNC(=N)N)cc1 [Compound 3020, 1-[1-(4-Ethylphenyl)ethylideneamino]guanidine Hydrochloride]",41%,3980 nM,115%,1260 nM
"CC(=NNC(=N)N)c1ccc(C)c(C)c1 [Compound 3021, 1-[1-(3,4-Dimethylphenyl)ethylideneamino]guanidine Hydrochloride]",32%,10000 nM,70%,2510 nM
"CCCCCCc1ccc(C(C)=NNC(=N)N)cc1 [Compound 3023, Hydrochloride]",29%,501 nM,22%,1260 nM
"CC(=NNC(=N)N)c1ccc2c(c1)CCCC2 [Compound 3024, 1-[1-(5,6,7,8-Tetrahydronaphthalen-2-yl)ethylideneamino]guanidine Hydrochloride]",41%,1000 nM,99%,398 nM
"CC(=NNC(=N)N)c1cccc(C(F)(F)F)c1 [Compound 3027, 1-{1-[3-(Trifluoromethyl)phenyl]ethylideneamino}guanidine Hydrochloride]",5%,,63%,1260 nM
"CC(=NNC(=N)N)c1cc(C(F)(F)F)cc(C(F)(F)F)c1 [Compound 3028, 1-{1-[3,5-Bis-(trifluoromethyl)phenyl]ethylideneamino}guanidine Hydrochloride]",9%,,23%,1260 nM
"CC(=NNC(=N)N)c1ccc2c(c1)OCO2 [Compound 3032, 1-[1-(Benzo[1,3]dioxol-5-yl)ethylideneamino]guanidine Hydrochloride]",36%,12600 nM,78%,3980 nM
"CC(=NNC(=N)N)c1ccc(N2CCCCC2)cc1 [Compound 3039, 1-[1-(4-Piperidin-1-yl-phenyl)ethylideneamino]guanidine Hydrochloride]",43%,398 nM,46%,501 nM
"N=C(N)NN=Cc1ccc(C(F)(F)F)cc1 [Compound 4002, 1-[(4-Trifluoromethyl)benzylideneamino]guanidine Hydrochloride]",20%,3980 nM,80%,2510 nM
